# Experimental data from patent US8512709B2, “Modified amyloid β peptide” (The Chemo-Sero-Therapeutic Research Institue, priority 2008, dated 2013).
# System: Aβ peptide (1-40 amino acid sequence)
# Assay: Anti-Aβ IgG antibody titer of murine serum after immunization with Aβ peptides (ELISA on immobilized Aβ 1-40)
# Assay type: in vivo, C57BL/6 mice
# Details: for Antibody titer Animal No. 1 / Antibody titer Animal No. 2 / Antibody titer Animal No. 3 / Antibody titer Animal No. 4: C57BL/6 mouse serum, Day 7 from final 3rd immunization; for Antibody titer Animal No. 1 / Antibody titer Animal No. 2 / Antibody titer Animal No. 3 / Antibody titer Animal No. 4 / Antibody titer Mean: 100 μg/mouse; for Antibody titer Mean: mean of 4 mice, serum Day 7 from final 3rd immunization
# [1] = Example 4, result in words on Table 4
# [2] = Example 7, result in words on Table 7
# [3] = Example 8, result in words on Table 8
sequence,measurement,setting,value
"AEFRHDSGKGAIIGLMVGC (added cysteine) [2-9•28-37AACys, 2-9+28-37-amino acid Aβ peptide with addition of Cysteine]",Antibody titer Animal No. 1,Example 4,7038 ng/mL
same,Antibody titer Animal No. 2,Example 4,29489 ng/mL
same,Antibody titer Animal No. 3,Example 4,16 ng/mL
same,Antibody titer Animal No. 4,Example 4,17 ng/mL
same,Antibody titer Mean,Example 4,9139.9 ng/mL
same,induction of an antibody to Aβ,[1],observed
"AEFRHDSGYKGAIIGLMVGC [2-10•28-37AACys, 2-10+28-37-amino acid Aβ peptide with addition of Cysteine]",Antibody titer Animal No. 1,Example 4,72890 ng/mL
same,Antibody titer Animal No. 2,Example 4,57573 ng/mL
same,Antibody titer Animal No. 3,Example 4,6094 ng/mL
same,Antibody titer Animal No. 4,Example 4,42593 ng/mL
same,Antibody titer Mean,Example 4,44787.5 ng/mL
same,induction of an antibody to Aβ,[1],observed
"DAEFRHDKGAIIGLMVGC [1-7•28-37AACys, 1-7+28-37-amino acid Aβ peptide with addition of Cysteine]",Antibody titer Animal No. 1,Example 3,26 ng/mL
same,Antibody titer Animal No. 2,Example 3,27 ng/mL
same,Antibody titer Animal No. 3,Example 3,34 ng/mL
same,Antibody titer Animal No. 4,Example 3,15 ng/mL
same,Antibody titer Mean,Example 3,25.6 ng/mL
"DAEFRHDSGKGAIIGLMVGC [1-9•28-37AACys, 1-9+28-37-amino acid Aβ peptide with addition of Cysteine]",Antibody titer Animal No. 1,Example 3,398 ng/mL
same,Antibody titer Animal No. 2,Example 3,249 ng/mL
same,Antibody titer Animal No. 3,Example 3,2772 ng/mL
same,Antibody titer Animal No. 4,Example 3,8899 ng/mL
same,Antibody titer Mean,Example 3,3079.5 ng/mL
same,induction of an antibody to Aβ,"Example 3, result in words on Table 3",observed
"DAEFRHDSGYAIIGLMVGGVVIAC [1-10•30-42AACys, 1-10+30-42-amino acid Aβ peptide with addition of Cysteine]",Antibody titer Animal No. 1,Example 1,9 ng/mL
same,Antibody titer Animal No. 2,Example 1,7 ng/mL
same,Antibody titer Animal No. 3,Example 1,11 ng/mL
same,Antibody titer Animal No. 4,Example 1,8 ng/mL
same,Antibody titer Mean,Example 1,8.4 ng/mL
"DAEFRHDSGYEVHHQKLVCFFAEDVG [1-18Cys19-25AA, 25-amino acid Aβ peptide wherein cysteine is inserted between residues Nos. 18 and 19]",Antibody titer Animal No. 1,Example 7,1.5 ng/mL
same,Antibody titer Animal No. 2,Example 7,6.6 ng/mL
same,Antibody titer Animal No. 3,Example 7,71.4 ng/mL
same,Antibody titer Animal No. 4,Example 7,1398 ng/mL
same,Antibody titer Mean,Example 7,369.4 ng/mL
same,induction of an antibody to Aβ,[2],observed in one of four cases
"DAEFRHDSGYEVHHQKLVCFFAEDVGS [1-18Cys19-26AA, 26-amino acid Aβ peptide wherein cysteine is inserted between residues Nos. 18 and 19]",Antibody titer Animal No. 1,Example 7,127.5 ng/mL
same,Antibody titer Animal No. 2,Example 7,7001 ng/mL
same,Antibody titer Animal No. 3,Example 7,15779 ng/mL
same,Antibody titer Animal No. 4,Example 7,164 ng/mL
same,Antibody titer Mean,Example 7,5767.9 ng/mL
same,induction of an antibody to Aβ,[2],observed
"DAEFRHDSGYEVHHQKLVCFFAEDVGSN [1-18Cys19-27AA, 27-amino acid Aβ peptide wherein cysteine is inserted between residues Nos. 18 and 19]",Antibody titer Animal No. 1,Example 7,2482 ng/mL
same,Antibody titer Animal No. 2,Example 7,3125 ng/mL
same,Antibody titer Animal No. 3,Example 7,2631 ng/mL
same,Antibody titer Animal No. 4,Example 7,17.2 ng/mL
same,Antibody titer Mean,Example 7,2063.8 ng/mL
same,induction of an antibody to Aβ,[2],observed
"DAEFRHDSGYEVHHQKLVCFFAEDVGSNK [1-18Cys19-28AA, 28-amino acid Aβ peptide wherein cysteine is inserted between residues Nos. 18 and 19]",Antibody titer Animal No. 1,Example 6,448154 ng/mL
same,Antibody titer Animal No. 2,Example 6,97146 ng/mL
same,Antibody titer Animal No. 3,Example 6,233411 ng/mL
same,Antibody titer Animal No. 4,Example 6,57794 ng/mL
same,Antibody titer Mean,Example 6,209126.3 ng/mL
DAEFRHDSGYEVHHQKLVCFFAEDVGSNKC [1-18Cys19-28AACys],Antibody titer Animal No. 1,Example 6,19908 ng/mL
same,Antibody titer Animal No. 2,Example 6,361259 ng/mL
same,Antibody titer Animal No. 3,Example 6,4161 ng/mL
same,Antibody titer Animal No. 4,Example 6,29412 ng/mL
same,Antibody titer Mean,Example 6,103685.0 ng/mL
"DAEFRHDSGYEVHHQKLVCKGAIIGLMVG [1-18Cys28-37AA, Aβ residues 1-18, cysteine, then Aβ residues 28-37]",Antibody titer Animal No. 1,Example 8,12541 ng/mL
same,Antibody titer Animal No. 2,Example 8,1964 ng/mL
same,Antibody titer Animal No. 3,Example 8,599 ng/mL
same,Antibody titer Animal No. 4,Example 8,25102 ng/mL
same,Antibody titer Mean,Example 8,10051.5 ng/mL
same,induction of an antibody to Aβ,[3],observed
"DAEFRHDSGYEVHHQKLVCKGAIIGLMVGC [1-18Cys28-37AACys, Aβ residues 1-18, cysteine, Aβ residues 28-37, C-terminal cysteine]",Antibody titer Animal No. 1,Example 8,1073 ng/mL
same,Antibody titer Animal No. 2,Example 8,43 ng/mL
same,Antibody titer Animal No. 3,Example 8,10 ng/mL
same,Antibody titer Animal No. 4,Example 8,4864 ng/mL
same,Antibody titer Mean,Example 8,1497.5 ng/mL
same,induction of an antibody to Aβ,[3],observed
"DAEFRHDSGYEVHHQKLVKGAIIGLMVG [1-18•28-37AA, reference compound]",Antibody titer Animal No. 1,Example 8,11 ng/mL
same,Antibody titer Animal No. 2,Example 8,11 ng/mL
same,Antibody titer Animal No. 3,Example 8,11 ng/mL
same,Antibody titer Animal No. 4,Example 8,9 ng/mL
same,Antibody titer Mean,Example 8,10.5 ng/mL
DAEFRHDSGYEVHHQKLVKGAIIGLMVGC [1-18•28-37AACys],Antibody titer Animal No. 1,Example 8,11 ng/mL
same,Antibody titer Animal No. 2,Example 8,9 ng/mL
same,Antibody titer Animal No. 3,Example 8,10 ng/mL
same,Antibody titer Animal No. 4,Example 8,13 ng/mL
same,Antibody titer Mean,Example 8,10.75 ng/mL
"DAEFRHDSGYEVHHQKLVKGAIIGLMVGGVVIAC [1-18•28-42AACys, 1-18+28-42-amino acid Aβ peptide with addition of Cysteine]",Antibody titer Animal No. 1,Example 5,69336 ng/mL
same,Antibody titer Animal No. 2,Example 5,41211 ng/mL
same,Antibody titer Animal No. 3,Example 5,51611 ng/mL
same,Antibody titer Animal No. 4,Example 5,7004 ng/mL
same,Antibody titer Mean,Example 5,42290.5 ng/mL
"DAEFRHDSGYGAIIGLMVGGVVIAC [1-10•29-42AACys, 1-10+29-42-amino acid Aβ peptide with addition of Cysteine]",Antibody titer Animal No. 1,Example 1,16 ng/mL
same,Antibody titer Animal No. 2,Example 1,16 ng/mL
same,Antibody titer Animal No. 3,Example 1,87 ng/mL
same,Antibody titer Animal No. 4,Example 1,11 ng/mL
same,Antibody titer Mean,Example 1,32.6 ng/mL
"DAEFRHDSGYKGAIIGLC [1-10•28-34AACys, 1-10+28-34-amino acid Aβ peptide with addition of Cysteine]",Antibody titer Animal No. 1,Example 2,29 ng/mL
same,Antibody titer Animal No. 2,Example 2,30 ng/mL
same,Antibody titer Animal No. 3,Example 2,26 ng/mL
same,Antibody titer Animal No. 4,Example 2,25 ng/mL
same,Antibody titer Mean,Example 2,27.4 ng/mL
"DAEFRHDSGYKGAIIGLMC [1-10•28-35AACys, 1-10+28-35-amino acid Aβ peptide with addition of Cysteine]",Antibody titer Animal No. 1,Example 2,44 ng/mL
same,Antibody titer Animal No. 2,Example 2,19 ng/mL
same,Antibody titer Animal No. 3,Example 2,8361 ng/mL
same,Antibody titer Animal No. 4,Example 2,220 ng/mL
same,Antibody titer Mean,Example 2,2161.0 ng/mL
"DAEFRHDSGYKGAIIGLMVC [1-10•28-36AACys, 1-10+28-36-amino acid Aβ peptide with addition of Cysteine]",Antibody titer Animal No. 1,Example 2,11821 ng/mL
same,Antibody titer Animal No. 2,Example 2,259763 ng/mL
same,Antibody titer Animal No. 3,Example 2,77 ng/mL
same,Antibody titer Animal No. 4,Example 2,44922 ng/mL
same,Antibody titer Mean,Example 2,79145.6 ng/mL
same,induction of an antibody to Aβ,"Example 2, result in words on Table 2",observed
